From patent US11738019B2, “Substituted heterocycles as antiviral agents” (ENANTA PHARMACEUTICALS, INC., priority 2019, dated 2023)

Assays:
[1] = compound induced cellular toxicity in HepG2 cells (ATPlite 1Step); type: cell-based; settings: human, three days, concentration reducing total ATP levels by 50% relative to no drug controls
Method: At day 3, post seeding cells are treated with ATPlite 1Step according to the manufacturer's instructions.

[2] = test system: HBV (2.2.15 cells); test: HBV viral product reduction in 2.2.15 cells (qPCR / HBsAg or HBeAg ELISA); type: cell-based; settings: Hepatitis B virus, 120 h, day 5 post treatment, concentration reducing viral product accumulation in cell lysates or supernatants by 50% relative to no drug controls
Method: 2.2.15 cells are passaged upon attaining confluency in DMEM/F12 media in the presence of 10% FBS, Penn/Strep, and 250 ug/mL G418. Novel compounds are 5 fold serially diluted in DMSO and added to 96 well plates containing 35,000 cells/well at a 1:200 dilution so that the final concentration of DMSO is 0.5%. On day 5, post treatment cell lysates and supernatants are harvested for analysis.
Cells are lysed using Agilent Sidestep Lysis buffer, diluted 1:100 and quantified via quantitative real time PCR. Commercially available ELISA kits are used to quantitate the viral proteins HBsAg (Alpco) or HBeAg (US Biological) by following the manufacturer's recommended protocol after diluting samples to match the linear range of their respective assays. Irrespective of readout, compound concentrations that reduce viral product accumulation in the cell lysates or supernatants by 50% relative to no drug controls (EC50) are reported; EC50 ranges are as follows: A<0.1 μM; B 0.1-1 μM; C>1 μM.

With `CC(C)(C)[C@@H]1Cc2c(cc(Cl)c3occc23)-c2cc(=O)c(C(=O)O)cn21` [Example 1, (S)-5-(tert-butyl)-12-chloro-9-oxo-4,9-dihydro-5H-furo[3,2-f]pyrido[2,1-a]isoquinoline-8-carboxylic acid] the CC50 at 3 days [1] was > 25 µM and the EC50 [2] was < 0.1 µM.

For `CC(C)(C)[C@@H]1Cc2c(cc(Cl)c3ccoc23)-c2cc(=O)c(C(=O)O)cn21` [Example 2, (S)-5-(tert-butyl)-12-chloro-9-oxo-4,9-dihydro-5H-furo[2,3-f]pyrido[2,1-a]isoquinoline-8-carboxylic acid], the CC50 at 3 days [1] was > 25 µM and the EC50 [2] was < 0.1 µM.

In the case of `CC(C)(C)[C@@H]1Cc2c(cc(-c3ccoc3)c3ccoc23)-c2cc(=O)c(C(=O)O)cn21` [Example 3, (S)-5-(tert-butyl)-12-(furan-3-yl)-9-oxo-4,9-dihydro-5H-furo[2,3-f]pyrido[2,1-a]isoquinoline-8-carboxylic acid], the CC50 at 3 days [1] is reported as > 25 µM and the EC50 [2] is reported as < 0.1 µM.

In the case of `Cn1nccc1-c1cc2c(c3ccoc13)C[C@@H](C(C)(C)C)n1cc(C(=O)O)c(=O)cc1-2` [Example 4, (S)-5-(tert-butyl)-12-(1-methyl-1H-pyrazol-5-yl)-9-oxo-4,9-dihydro-5H-furo[3,2-f]pyrido[2,1-a]isoquinoline-8-carboxylic acid], the EC50 [2] is reported as < 0.1 µM.

With `Cn1cc(-c2cc3c(c4ccoc24)C[C@@H](C(C)(C)C)n2cc(C(=O)O)c(=O)cc2-3)cn1` [Example 5, (S)-5-(tert-butyl)-12-(1-methyl-1H-pyrazol-4-yl)-9-oxo-4,9-dihydro-5H-furo[3,2-f]pyrido[2,1-a]isoquinoline-8-carboxylic acid] the CC50 at 3 days [1] was > 25 µM and the EC50 [2] was > 1 µM.

For `CC(C)(C)[C@@H]1Cc2c(cc(-c3ccn[nH]3)c3ccoc23)-c2cc(=O)c(C(=O)O)cn21` [Example 6, (S)-5-(tert-butyl)-9-oxo-12-(1H-pyrazol-5-yl)-4,9-dihydro-5H-furo[2,3-f]pyrido[2,1-a]isoquinoline-8-carboxylic acid], the CC50 at 3 days [1] was 10 to 25 µM and the EC50 [2] was < 0.1 µM.

With `CC(C)(C)[C@@H]1Cc2c(cc(-c3ccsc3)c3ccoc23)-c2cc(=O)c(C(=O)O)cn21` [Example 7, (S)-5-(tert-butyl)-9-oxo-12-(thiophen-3-yl)-4,9-dihydro-5H-furo[2,3-f]pyrido[2,1-a]isoquinoline-8-carboxylic acid] the CC50 at 3 days [1] was 10 to 25 µM and the EC50 [2] was < 0.1 µM.

For `CC(C)(C)[C@@H]1Cc2c(cc(-c3ccco3)c3ccoc23)-c2cc(=O)c(C(=O)O)cn21` [Example 8, (S)-5-(tert-butyl)-12-(furan-2-yl)-9-oxo-4,9-dihydro-5H-furo[2,3-f]pyrido[2,1-a]isoquinoline-8-carboxylic acid], the CC50 at 3 days [1] was > 25 µM and the EC50 [2] was < 0.1 µM.

With `CC(C)(C)[C@@H]1Cc2c(cc(-c3cn[nH]c3)c3ccoc23)-c2cc(=O)c(C(=O)O)cn21` [Example 9, (S)-5-(tert-butyl)-9-oxo-12-(1H-pyrazol-4-yl)-4,9-dihydro-5H-furo[2,3-f]pyrido[2,1-a]isoquinoline-8-carboxylic acid] the CC50 at 3 days [1] was > 25 µM and the EC50 [2] was < 0.1 µM.

With `CC(C)(C)[C@@H]1Cc2c(cc(-c3cccs3)c3ccoc23)-c2cc(=O)c(C(=O)O)cn21` [Example 10, (S)-5-(tert-butyl)-9-oxo-12-(thiophen-2-yl)-4,9-dihydro-5H-furo[2,3-f]pyrido[2,1-a]isoquinoline-8-carboxylic acid] the CC50 at 3 days [1] was 10 to 25 µM and the EC50 [2] was < 0.1 µM.

With `CC(C)(C)[C@@H]1Cc2c(cc(N3CCC(F)(F)C3)c3occc23)-c2cc(=O)c(C(=O)O)cn21` [Example 20, (S)-5-(tert-butyl)-12-(3,3-difluoropyrrolidin-1-yl)-9-oxo-4,9-dihydro-5H-furo[3,2-f]pyrido[2,1-a]isoquinoline-8-carboxylic acid] the EC50 [2] was 0.1 to 1 µM.

Work on `CC(C)(C)[C@@H]1Cc2c(cc(N3CCCC3)c3occc23)-c2cc(=O)c(C(=O)O)cn21` [Example 21, (S)-5-(tert-butyl)-9-oxo-12-(pyrrolidin-1-yl)-4,9-dihydro-5H-furo[3,2-f]pyrido[2,1-a]isoquinoline-8-carboxylic acid] yielded an EC50 [2] of 0.1 to 1 µM.

`CC(C)(C)[C@@H]1Cc2c(cc(-c3cnco3)c3occc23)-c2cc(=O)c(C(=O)O)cn21` [Example 22, (S)-5-(tert-butyl)-12-(oxazol-5-yl)-9-oxo-4,9-dihydro-5H-furo[3,2-f]pyrido[2,1-a]isoquinoline-8-carboxylic acid] gave an EC50 [2] of 0.1 to 1 µM.

For `Cn1ccc(-c2cc3c(c4ccoc24)C[C@@H](C(C)(C)C)n2cc(C(=O)O)c(=O)cc2-3)n1` [Example 23, (S)-5-(tert-butyl)-12-(1-methyl-1H-pyrazol-3-yl)-9-oxo-4,9-dihydro-5H-furo[3,2-f]pyrido[2,1-a]isoquinoline-8-carboxylic acid], the EC50 [2] was > 1 µM.

With `CC(C)(C)[C@@H]1Cc2c(cc(-c3cccs3)c3occc23)-c2cc(=O)c(C(=O)O)cn21` [Example 24, (S)-5-(tert-butyl)-9-oxo-12-(thiophen-2-yl)-4,9-dihydro-5H-furo[3,2-f]pyrido[2,1-a]isoquinoline-8-carboxylic acid] the EC50 [2] was > 1 µM.

With `CC(C)(C)[C@@H]1Cc2c(cc(-c3ccsc3)c3occc23)-c2cc(=O)c(C(=O)O)cn21` [Example 25, (S)-5-(tert-butyl)-9-oxo-12-(thiophen-3-yl)-4,9-dihydro-5H-furo[3,2-f]pyrido[2,1-a]isoquinoline-8-carboxylic acid] the EC50 [2] was > 1 µM.

With `CC(C)(C)[C@@H]1Cc2c(cc(-c3ccco3)c3occc23)-c2cc(=O)c(C(=O)O)cn21` [Example 26, (S)-5-(tert-butyl)-12-(furan-2-yl)-9-oxo-4,9-dihydro-5H-furo[3,2-f]pyrido[2,1-a]isoquinoline-8-carboxylic acid] the EC50 [2] was > 1 µM.

In the case of `CC(C)(C)[C@@H]1Cc2c(cc(-c3cn[nH]c3)c3occc23)-c2cc(=O)c(C(=O)O)cn21` [Example 27, (S)-5-(tert-butyl)-9-oxo-12-(1H-pyrazol-4-yl)-4,9-dihydro-5H-furo[3,2-f]pyrido[2,1-a]isoquinoline-8-carboxylic acid], the EC50 [2] is reported as > 1 µM.

In the case of `CC(C)(C)[C@@H]1Cc2c(cc(-c3ccn[nH]3)c3occc23)-c2cc(=O)c(C(=O)O)cn21` [Example 28, (S)-5-(tert-butyl)-9-oxo-12-(1H-pyrazol-5-yl)-4,9-dihydro-5H-furo[3,2-f]pyrido[2,1-a]isoquinoline-8-carboxylic acid], the EC50 [2] is reported as > 1 µM.

In the case of `CC(C)(C)[C@@H]1Cc2c(cc(-c3cnsc3)c3occc23)-c2cc(=O)c(C(=O)O)cn21` [Example 29, (S)-5-(tert-butyl)-12-(isothiazol-4-yl)-9-oxo-4,9-dihydro-5H-furo[3,2-f]pyrido[2,1-a]isoquinoline-8-carboxylic acid], the EC50 [2] is reported as > 1 µM.

For `CC(C)(C)[C@@H]1Cc2c(cc(-c3cscn3)c3occc23)-c2cc(=O)c(C(=O)O)cn21` [Example 30, (S)-5-(tert-butyl)-9-oxo-12-(thiazol-4-yl)-4,9-dihydro-5H-furo[3,2-f]pyrido[2,1-a]isoquinoline-8-carboxylic acid], the EC50 [2] was > 1 µM.

In the case of `CC(C)(C)[C@@H]1Cc2c(ccc3occc23)-c2cc(=O)c(C(=O)O)cn21` [Example 31, (S)-5-(tert-butyl)-9-oxo-4,9-dihydro-11-furo[3,2-f]pyrido[2,1-a]isoquinoline-8-carboxylic acid], the EC50 [2] is reported as > 1 µM.
